ChEMBL document CHEMBL1201862, “PubChem BioAssay data set” (2004)
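How tested: cells in 96-well plates exposed to compound for 48 hours at five concentrations. At the GI50, growth is halved.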 The source made the active and inactive calls. Cut-off read from the data, not from the text of the source: active = GI50 up to about 1.1 µM and inactive = higher.

Legend:
Experiment in all cases: NCI anticancer screen, dose series, 48 h
786-0 = tested on: 786-0
A549 = tested on: A549
ACHN = tested on: ACHN
BT-549 = tested on: BT-549
CAKI-1 = tested on: CAKI-1
CCRF-CEM = tested on: CCRF-CEM
COLO 205 = tested on: COLO 205
DU-145 = tested on: DU-145
EKVX = tested on: EKVX
HCC 2998 = tested on: HCC 2998
HCT-116 = tested on: HCT-116
HCT-15 = tested on: HCT-15
HL-60 = tested on: HL-60
HOP-62 = tested on: HOP-62
HOP-92 = tested on: HOP-92
HT-29 = tested on: HT-29
Hs-578T = tested on: Hs-578T
IGROV-1 = tested on: IGROV-1
K562 = tested on: K562
KM12 = tested on: KM12
LOX IMVI = tested on: LOX IMVI
M14 = tested on: M14
MCF7 = tested on: MCF7
MDA-MB-231 = tested on: MDA-MB-231
MDA-MB-435 = tested on: MDA-MB-435
MDA-N = tested on: MDA-N
MOLT-4 = tested on: MOLT-4
NCI-H226 = tested on: NCI-H226
NCI-H23 = tested on: NCI-H23
NCI-H460 = tested on: NCI-H460
NCI-H522 = tested on: NCI-H522
NCI/ADR-RES = tested on: NCI/ADR-RES
OVCAR-3 = tested on: OVCAR-3
OVCAR-4 = tested on: OVCAR-4
OVCAR-5 = tested on: OVCAR-5
OVCAR-8 = tested on: OVCAR-8
PC-3 = tested on: PC-3
RXF 393 = tested on: RXF 393
SF-268 = tested on: SF-268
SF-295 = tested on: SF-295
SF-539 = tested on: SF-539
SK-MEL-28 = tested on: SK-MEL-28
SK-MEL-5 = tested on: SK-MEL-5
SK-OV-3 = tested on: SK-OV-3
SN12C = tested on: SN12C
SNB-19 = tested on: SNB-19
SNB-75 = tested on: SNB-75
SR = tested on: SR
SW-620 = tested on: SW-620
TK-10 = tested on: TK-10
U-251 = tested on: U-251
UACC-257 = tested on: UACC-257
UACC-62 = tested on: UACC-62
UO-31 = tested on: UO-31

CCOC(CN(C)C(=O)OCC(Cl)(Cl)Cl)OCC
GI50 (786-0): > 100 µM (inactive) | GI50 (A549): > 100 µM (inactive) | GI50 (ACHN): 99.1 µM (inactive) | GI50 (BT-549): 82.8 µM (inactive) | GI50 (CAKI-1): 34.1 µM (inactive) | GI50 (CCRF-CEM): 56.6 µM (inactive) | GI50 (COLO 205): 27.7 µM (inactive) | GI50 (DU-145): > 100 µM (inactive) | GI50 (EKVX): > 100 µM (inactive) | GI50 (HCC 2998): > 100 µM (inactive) | GI50 (HCT-116): 41.5 µM (inactive) | GI50 (HCT-15): 77.8 µM | GI50 (HL-60): 21.6 µM (inactive) | GI50 (HOP-62): > 100 µM (inactive) | GI50 (HOP-92): 33.9 µM (inactive) | GI50 (HT-29): 79.1 µM (inactive) | GI50 (Hs-578T): 29.7 µM (inactive) | GI50 (IGROV-1): > 100 µM (inactive) | GI50 (K562): 39.9 µM (inactive) | GI50 (KM12): > 100 µM (inactive) | GI50 (LOX IMVI): 57.9 µM (inactive) | GI50 (M14): 69 µM (inactive) | GI50 (MCF7): 67.9 µM (inactive) | GI50 (MDA-MB-231): 25.5 µM (inactive) | GI50 (MDA-MB-435): > 100 µM (inactive) | GI50 (MDA-N): 81.3 µM (inactive) | GI50 (MOLT-4): 29.3 µM (inactive) | GI50 (NCI-H226): 54.6 µM (inactive) | GI50 (NCI-H23): 59.7 µM (inactive) | GI50 (NCI-H460): 61.5 µM (inactive) | GI50 (NCI-H522): 47.8 µM (inactive) | GI50 (NCI/ADR-RES): 39.4 µM (inactive) | GI50 (OVCAR-3): > 100 µM (inactive) | GI50 (OVCAR-4): 77.1 µM (inactive) | GI50 (OVCAR-5): > 100 µM (inactive) | GI50 (OVCAR-8): > 100 µM (inactive) | GI50 (PC-3): 23.3 µM (inactive) | GI50 (RXF 393): 30.7 µM (inactive) | GI50 (SF-268): > 100 µM (inactive) | GI50 (SF-295): > 100 µM (inactive) | GI50 (SF-539): > 100 µM (inactive) | GI50 (SK-MEL-28): > 100 µM (inactive) | GI50 (SK-MEL-5): 33.7 µM (inactive) | GI50 (SK-OV-3): > 100 µM (inactive) | GI50 (SN12C): > 100 µM (inactive) | GI50 (SNB-19): > 100 µM (inactive) | GI50 (SNB-75): 83.4 µM (inactive) | GI50 (SR): 34.2 µM (inactive) | GI50 (SW-620): > 100 µM (inactive) | GI50 (TK-10): > 100 µM (inactive) | GI50 (U-251): 74.8 µM (inactive) | GI50 (UACC-257): 33.4 µM (inactive) | GI50 (UACC-62): > 100 µM (inactive) | GI50 (UO-31): 27.6 µM (inactive)
